Calls of active or inactive are those of the source.
What was measured:
[1] = target: T1, Tyrosine-protein phosphatase non-receptor type 7 (Homo sapiens, UniProt P35236); type: functional
T1 sequence (P35236 whole entry): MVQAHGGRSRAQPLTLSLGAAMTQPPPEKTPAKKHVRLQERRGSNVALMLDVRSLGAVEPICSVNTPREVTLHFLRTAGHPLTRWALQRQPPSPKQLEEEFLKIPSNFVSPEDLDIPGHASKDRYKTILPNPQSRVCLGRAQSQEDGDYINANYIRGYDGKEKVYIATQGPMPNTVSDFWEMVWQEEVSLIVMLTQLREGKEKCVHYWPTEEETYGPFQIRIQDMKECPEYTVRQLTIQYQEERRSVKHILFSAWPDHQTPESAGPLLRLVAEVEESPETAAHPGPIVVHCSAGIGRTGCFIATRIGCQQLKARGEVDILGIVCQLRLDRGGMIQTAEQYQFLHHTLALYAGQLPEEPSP

[2] = target: T2, Tyrosine-protein phosphatase non-receptor type 22 (Homo sapiens, UniProt Q9Y2R2); type: functional
T2 sequence (Q9Y2R2 whole entry): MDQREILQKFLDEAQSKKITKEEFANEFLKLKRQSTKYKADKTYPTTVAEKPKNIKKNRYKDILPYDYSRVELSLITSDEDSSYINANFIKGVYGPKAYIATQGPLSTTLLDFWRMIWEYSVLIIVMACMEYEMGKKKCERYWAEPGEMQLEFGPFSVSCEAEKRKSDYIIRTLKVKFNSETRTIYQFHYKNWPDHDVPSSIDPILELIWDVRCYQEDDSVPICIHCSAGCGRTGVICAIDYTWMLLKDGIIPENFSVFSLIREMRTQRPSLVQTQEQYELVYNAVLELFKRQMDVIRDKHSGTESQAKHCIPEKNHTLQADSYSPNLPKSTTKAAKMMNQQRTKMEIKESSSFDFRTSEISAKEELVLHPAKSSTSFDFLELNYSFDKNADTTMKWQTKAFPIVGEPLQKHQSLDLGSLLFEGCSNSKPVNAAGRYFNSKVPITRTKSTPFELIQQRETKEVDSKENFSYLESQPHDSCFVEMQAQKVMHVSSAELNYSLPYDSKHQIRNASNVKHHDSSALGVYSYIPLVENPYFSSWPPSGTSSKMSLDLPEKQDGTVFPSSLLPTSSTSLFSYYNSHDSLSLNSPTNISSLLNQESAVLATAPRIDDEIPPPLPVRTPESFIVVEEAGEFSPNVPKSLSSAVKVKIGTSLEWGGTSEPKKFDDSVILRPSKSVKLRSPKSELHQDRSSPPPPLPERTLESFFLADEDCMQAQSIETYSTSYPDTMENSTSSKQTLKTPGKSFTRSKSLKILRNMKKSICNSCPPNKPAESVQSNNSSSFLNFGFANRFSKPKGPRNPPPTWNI

[3] = target: T2, Tyrosine-protein phosphatase non-receptor type 22; type: functional; remark: listed apart in the source
[4] = target: T3, Alkaline phosphatase, tissue-nonspecific isozyme (Homo sapiens, UniProt P05186); assay: potency against alkaline phosphatase TNAP – biochemical, luminescent, dose response, SAR follow-up (AID 1056)
T3 sequence (P05186 whole entry): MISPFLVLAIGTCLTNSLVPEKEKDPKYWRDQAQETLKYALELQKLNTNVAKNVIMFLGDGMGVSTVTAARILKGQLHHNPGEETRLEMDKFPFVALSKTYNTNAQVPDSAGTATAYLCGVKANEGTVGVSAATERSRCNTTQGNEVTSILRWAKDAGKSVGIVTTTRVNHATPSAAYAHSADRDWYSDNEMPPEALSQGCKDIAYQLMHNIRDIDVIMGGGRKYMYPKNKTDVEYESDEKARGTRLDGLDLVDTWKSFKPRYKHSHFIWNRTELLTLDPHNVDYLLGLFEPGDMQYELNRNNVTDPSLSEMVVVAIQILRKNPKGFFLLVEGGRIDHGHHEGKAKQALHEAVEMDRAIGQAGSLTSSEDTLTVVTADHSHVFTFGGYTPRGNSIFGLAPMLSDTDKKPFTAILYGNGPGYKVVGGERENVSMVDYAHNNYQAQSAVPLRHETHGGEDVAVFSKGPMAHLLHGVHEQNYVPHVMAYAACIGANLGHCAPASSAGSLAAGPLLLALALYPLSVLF

[5] = target: Alkaline phosphatase, placental type (Homo sapiens, UniProt P05187); assay: human placental alkaline phosphatase inhibition – biochemical, luminescence, confirmation (AID 1512); type: functional
Sequence of Alkaline phosphatase, placental type (P05187 whole entry): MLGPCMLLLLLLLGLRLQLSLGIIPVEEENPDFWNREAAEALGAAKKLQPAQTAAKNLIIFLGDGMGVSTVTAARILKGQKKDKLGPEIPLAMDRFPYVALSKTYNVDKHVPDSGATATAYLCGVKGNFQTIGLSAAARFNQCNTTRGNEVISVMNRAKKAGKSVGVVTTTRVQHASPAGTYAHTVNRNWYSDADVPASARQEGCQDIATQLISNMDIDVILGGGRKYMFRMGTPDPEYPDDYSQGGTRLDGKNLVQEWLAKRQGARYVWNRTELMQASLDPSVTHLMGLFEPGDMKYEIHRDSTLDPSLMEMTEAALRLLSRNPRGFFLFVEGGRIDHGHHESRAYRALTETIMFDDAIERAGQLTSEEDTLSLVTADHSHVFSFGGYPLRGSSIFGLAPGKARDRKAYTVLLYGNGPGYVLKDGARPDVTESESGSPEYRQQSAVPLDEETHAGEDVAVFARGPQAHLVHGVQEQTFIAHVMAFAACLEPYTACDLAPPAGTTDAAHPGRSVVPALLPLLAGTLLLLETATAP

[6] = target: T4, Lysine-specific demethylase 4C (Homo sapiens, UniProt Q9H3R0); assay: inhibition of JMJD2C H3K9me3 demethylation – biochemical, DELFIA europium, cherry-picked samples, dose response (AID 488835); type: functional
T4 sequence (Q9H3R0 whole entry): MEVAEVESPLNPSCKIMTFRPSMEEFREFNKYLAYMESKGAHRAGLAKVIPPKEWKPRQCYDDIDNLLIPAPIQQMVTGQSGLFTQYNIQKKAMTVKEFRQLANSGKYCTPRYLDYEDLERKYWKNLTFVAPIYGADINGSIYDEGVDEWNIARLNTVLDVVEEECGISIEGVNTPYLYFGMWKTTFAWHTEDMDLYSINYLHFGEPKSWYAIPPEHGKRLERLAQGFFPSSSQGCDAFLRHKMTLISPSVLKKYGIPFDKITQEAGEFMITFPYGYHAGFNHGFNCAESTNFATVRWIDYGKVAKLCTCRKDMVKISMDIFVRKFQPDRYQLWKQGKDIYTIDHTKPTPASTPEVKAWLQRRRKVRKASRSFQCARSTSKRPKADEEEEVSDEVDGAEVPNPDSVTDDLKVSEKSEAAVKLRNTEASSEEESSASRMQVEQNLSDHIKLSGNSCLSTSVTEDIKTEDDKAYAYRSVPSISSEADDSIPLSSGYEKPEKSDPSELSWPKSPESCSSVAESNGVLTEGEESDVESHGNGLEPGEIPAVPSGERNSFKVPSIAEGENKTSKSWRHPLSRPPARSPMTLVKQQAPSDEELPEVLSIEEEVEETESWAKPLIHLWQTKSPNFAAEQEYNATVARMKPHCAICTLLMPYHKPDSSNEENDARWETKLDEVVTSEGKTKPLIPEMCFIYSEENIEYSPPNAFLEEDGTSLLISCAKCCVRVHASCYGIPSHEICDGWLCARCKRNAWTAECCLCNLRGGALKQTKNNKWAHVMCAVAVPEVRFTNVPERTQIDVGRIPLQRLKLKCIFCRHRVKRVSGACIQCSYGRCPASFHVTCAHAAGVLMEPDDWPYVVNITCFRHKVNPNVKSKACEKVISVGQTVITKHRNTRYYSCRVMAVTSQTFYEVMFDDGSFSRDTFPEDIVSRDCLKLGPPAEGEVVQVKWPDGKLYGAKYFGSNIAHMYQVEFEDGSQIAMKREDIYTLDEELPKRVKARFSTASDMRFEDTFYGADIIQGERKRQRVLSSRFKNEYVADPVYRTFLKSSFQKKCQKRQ

[7] = target: T5, E3 ubiquitin-protein ligase XIAP (Homo sapiens, UniProt P98170); assay: small molecules displacing peptide from XIAP – biochemical, IAP family, fluorescence polarization (AID 1018); type: functional
T5 sequence (P98170 whole entry): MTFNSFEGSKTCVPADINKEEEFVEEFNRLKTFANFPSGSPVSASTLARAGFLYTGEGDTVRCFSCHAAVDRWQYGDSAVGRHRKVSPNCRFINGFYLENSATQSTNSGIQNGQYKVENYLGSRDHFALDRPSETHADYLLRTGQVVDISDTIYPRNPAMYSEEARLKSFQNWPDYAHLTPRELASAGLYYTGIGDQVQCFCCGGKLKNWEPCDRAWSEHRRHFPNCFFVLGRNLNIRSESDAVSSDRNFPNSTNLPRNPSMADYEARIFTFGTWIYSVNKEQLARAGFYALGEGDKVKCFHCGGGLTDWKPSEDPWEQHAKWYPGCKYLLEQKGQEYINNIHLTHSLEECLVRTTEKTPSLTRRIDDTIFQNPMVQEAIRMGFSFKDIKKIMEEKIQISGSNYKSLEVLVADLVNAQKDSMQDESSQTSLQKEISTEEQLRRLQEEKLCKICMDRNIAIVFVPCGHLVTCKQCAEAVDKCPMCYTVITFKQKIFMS

[8] = target: T5, E3 ubiquitin-protein ligase XIAP; assay: Counter Screen using XIAP-Bir3 for Chemical Antagonists of Bir1/2 domains of IAP-family anti-apoptotic proteins. [Related pubchem assays (depositor defined):AID1018, AID1449, AID1514, AID1638, AID1749, AID1750, AID488957, AID488963]
[9] = target: Nucleotide-binding oligomerization domain-containing protein 2 (Homo sapiens, UniProt Q9HC29); assay: inhibition of NOD2-driven NF-kB reporter – cell-based, luminescence, uHTS, HEK293 (AID 1566); type: functional
Sequence of Nucleotide-binding oligomerization domain-containing protein 2 (Q9HC29 whole entry, the tested form may be a part): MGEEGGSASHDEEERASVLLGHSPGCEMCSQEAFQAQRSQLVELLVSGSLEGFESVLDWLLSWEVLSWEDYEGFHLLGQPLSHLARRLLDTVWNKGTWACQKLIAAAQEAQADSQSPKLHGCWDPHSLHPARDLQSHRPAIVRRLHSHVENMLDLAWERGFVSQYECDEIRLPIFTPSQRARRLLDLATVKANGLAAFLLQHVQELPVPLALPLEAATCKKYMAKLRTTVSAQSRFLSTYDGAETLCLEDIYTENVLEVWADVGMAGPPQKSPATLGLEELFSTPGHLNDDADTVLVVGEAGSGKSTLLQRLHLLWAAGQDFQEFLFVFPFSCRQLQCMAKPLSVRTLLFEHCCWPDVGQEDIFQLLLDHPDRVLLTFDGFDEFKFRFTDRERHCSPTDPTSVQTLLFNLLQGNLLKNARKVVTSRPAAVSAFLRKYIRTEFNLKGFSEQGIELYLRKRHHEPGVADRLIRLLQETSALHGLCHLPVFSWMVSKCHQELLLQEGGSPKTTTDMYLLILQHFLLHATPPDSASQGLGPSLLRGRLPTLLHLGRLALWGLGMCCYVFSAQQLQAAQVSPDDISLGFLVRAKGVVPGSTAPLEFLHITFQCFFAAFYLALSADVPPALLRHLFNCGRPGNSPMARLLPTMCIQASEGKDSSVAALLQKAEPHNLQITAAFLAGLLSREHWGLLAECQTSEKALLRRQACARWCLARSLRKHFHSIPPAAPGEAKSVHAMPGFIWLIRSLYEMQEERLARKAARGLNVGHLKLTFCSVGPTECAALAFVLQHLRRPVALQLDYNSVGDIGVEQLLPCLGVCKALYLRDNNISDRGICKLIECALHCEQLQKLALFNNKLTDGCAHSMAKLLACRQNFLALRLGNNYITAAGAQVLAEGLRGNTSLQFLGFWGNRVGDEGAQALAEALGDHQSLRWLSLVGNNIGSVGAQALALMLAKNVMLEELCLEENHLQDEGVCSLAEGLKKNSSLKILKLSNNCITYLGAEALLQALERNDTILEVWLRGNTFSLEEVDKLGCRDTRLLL

[10] = tested on: HEK293; assay: NOD2 signaling inhibitors in MDP-stimulated cells, cell-based, uHTS, luminescence (AID 2001); type: functional; details: Homo sapiens
[11] = tested on: HEK293; assay: cells; type: functional, cell-based; details: Homo sapiens
[12] = tested on: HEK293; assay: cells; type: functional, cell-based; details: Homo sapiens; remark: listed apart in the source
[13] = tested on: HEK293; assay: cells; type: functional, cell-based; details: Homo sapiens; remark: listed apart in the source
[14] = tested on: HEK293; assay: inhibition of NOD1-driven NF-kB reporter – cell-based, luminescence, uHTS, primary screen (AID 1578); type: functional; details: Homo sapiens
[15] = HEK-293T viability loss after treatment – luminescence, T-cell screen hits, cytotoxicity control for TCR NF-kB inhibitor project, dose response (AID 489026); type: functional, cell-based;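 note: cells exposed to compound about 14 hours before the viability readout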
[16] = target: T6, Protein RecA (Mycobacterium tuberculosis, UniProt P9WHJ3); assay: Fluorescence Cell-Free Homogeneous Dose Retest to Identify Inhibitors of RecA-Intein Splicing Activity. [Related pubchem assays (depositor defined):AID2097, AID2223, AID489010, AID492950]; type: functional
T6 sequence (P9WHJ3 whole entry): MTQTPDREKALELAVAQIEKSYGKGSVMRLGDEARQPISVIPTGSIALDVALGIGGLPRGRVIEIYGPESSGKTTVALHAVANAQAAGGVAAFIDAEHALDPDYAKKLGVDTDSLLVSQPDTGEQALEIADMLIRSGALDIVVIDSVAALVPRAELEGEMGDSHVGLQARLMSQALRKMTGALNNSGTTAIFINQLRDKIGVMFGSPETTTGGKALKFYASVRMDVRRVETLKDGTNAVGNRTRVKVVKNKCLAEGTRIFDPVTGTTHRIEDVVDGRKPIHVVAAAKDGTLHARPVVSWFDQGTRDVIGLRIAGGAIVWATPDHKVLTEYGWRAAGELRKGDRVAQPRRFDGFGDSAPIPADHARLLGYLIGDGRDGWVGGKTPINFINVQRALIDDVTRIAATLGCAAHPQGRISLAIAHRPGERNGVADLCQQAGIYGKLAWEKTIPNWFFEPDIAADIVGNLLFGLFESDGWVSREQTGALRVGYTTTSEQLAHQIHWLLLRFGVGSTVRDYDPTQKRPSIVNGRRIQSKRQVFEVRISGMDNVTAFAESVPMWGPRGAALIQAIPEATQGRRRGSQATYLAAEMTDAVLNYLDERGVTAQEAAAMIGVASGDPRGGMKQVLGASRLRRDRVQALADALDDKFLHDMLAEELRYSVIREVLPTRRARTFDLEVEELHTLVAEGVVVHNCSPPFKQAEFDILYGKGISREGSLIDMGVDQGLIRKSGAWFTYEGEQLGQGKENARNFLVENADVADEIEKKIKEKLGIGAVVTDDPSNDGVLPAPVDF

[17] = Intein inhibitors as potential Tuberculosis drugs, a cytotoxicity screen. [Related pubchem assays (depositor defined):AID2221, AID2223, AID434968, AID435010, AID449749, AID449750, AID489010]; type: functional
[18] = target: T7, Replicative DNA helicase DnaB (Mycobacterium tuberculosis, UniProt P9WMR3); assay: DnaB intein splicing inhibitors, dose response, biochemical, cell-free fluorescence (AID 449749); type: functional
T7 sequence (P9WMR3 whole entry): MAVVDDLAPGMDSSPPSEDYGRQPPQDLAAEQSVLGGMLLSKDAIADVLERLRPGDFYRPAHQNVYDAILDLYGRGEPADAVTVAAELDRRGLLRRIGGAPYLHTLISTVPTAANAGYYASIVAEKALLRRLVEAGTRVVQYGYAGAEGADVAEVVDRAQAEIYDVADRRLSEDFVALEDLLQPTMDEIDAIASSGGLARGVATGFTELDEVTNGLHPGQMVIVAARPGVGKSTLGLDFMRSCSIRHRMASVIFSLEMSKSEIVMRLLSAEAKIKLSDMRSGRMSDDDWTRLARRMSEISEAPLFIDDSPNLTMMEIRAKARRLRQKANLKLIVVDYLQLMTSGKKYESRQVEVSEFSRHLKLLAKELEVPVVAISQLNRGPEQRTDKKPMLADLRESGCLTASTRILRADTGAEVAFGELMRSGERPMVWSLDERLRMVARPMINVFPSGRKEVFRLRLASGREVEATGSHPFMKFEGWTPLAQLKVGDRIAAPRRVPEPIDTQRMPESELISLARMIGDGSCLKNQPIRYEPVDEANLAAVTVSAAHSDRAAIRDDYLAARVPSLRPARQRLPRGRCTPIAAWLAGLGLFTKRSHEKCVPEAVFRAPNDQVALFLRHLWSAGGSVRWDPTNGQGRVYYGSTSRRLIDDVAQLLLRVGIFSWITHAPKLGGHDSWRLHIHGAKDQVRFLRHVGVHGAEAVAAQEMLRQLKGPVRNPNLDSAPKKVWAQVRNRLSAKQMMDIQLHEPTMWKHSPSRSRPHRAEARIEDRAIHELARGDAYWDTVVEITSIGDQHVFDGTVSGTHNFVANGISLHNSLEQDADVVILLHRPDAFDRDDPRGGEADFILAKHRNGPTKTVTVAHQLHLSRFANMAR
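Throughout, for CC50: cells exposed to compound for 72 hours before luminescence readout.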

Cc1ccc(S(=O)(=O)c2nc(-c3ccccc3)oc2NCCN2CCOCC2)cc1
IC50 [1]: > 79.4 µM (inactive) | IC50 [2]: > 79.4 µM (inactive) | IC50 [3]: 75.3 µM (active)

Cc1ccc(-c2nnc(SCC(=O)c3ccc(O)c(O)c3)n2Cc2ccco2)cc1
IC50 [4]: 19.2 µM (active) | IC50 [5]: 5.32 µM (active)

Cc1cc(C(=O)NCc2ccc(O)c(O)c2)oc1C
IC50 [4]: > 100 µM (inactive) | IC50 [5]: 52.7 µM (active)

COc1ccc(/C=C2/C(=O)NC(=O)N(C3CCCCC3)C2=O)cc1CSc1ccccn1
AC50 [6]: 10 µM (active)

Cc1cc(NC(=O)c2cc([N+](=O)[O-])cc([N+](=O)[O-])c2)n(-c2ccccc2)n1
IC50 [7]: > 100 µM (not active) | IC50 [8]: > 100 µM (inactive)

COc1cccc(OCc2cc(C(=O)NCc3cnc4ccccn34)no2)c1
EC50 [9]: > 20 µM (inactive) | IC50 [10]: > 20 µM (inactive) | IC50 [11]: 18.9 µM (active) | IC50 [12]: > 20 µM (inactive) | IC50 [13]: > 20 µM (inactive) | EC50 [14]: 12.9 µM (active)

O=C(NCc1ccco1)c1ccc2ccccc2n1
IC50 [1]: > 79.4 µM (inactive) | IC50 [2]: > 79.4 µM (inactive) | IC50 [3]: > 79.4 µM (inactive)

COc1cc(NCCCCCCCN)c2ncccc2c1
IC50 [15]: 46.9 µM (inactive) | EC50 [16]: 0.401 µM (active) | CC50 [17]: > 40 µM (active) | AC50 [18]: 2.12 µM (active)

CN(CC(=O)O)c1ccc(C(F)(F)F)cc1[N+](=O)[O-]
IC50 [7]: > 100 µM (not active) | IC50 [8]: > 100 µM (inactive)

C=CCn1c(SCC(=O)c2ccc(O)c(O)c2)nnc1-c1ccc(OC)cc1
IC50 [4]: > 100 µM (inactive) | IC50 [5]: 13.6 µM (active)

COc1ccccc1CNC(=O)COC(=O)Cc1ccsc1
IC50 [7]: > 100 µM (not active) | IC50 [8]: > 100 µM (inactive)
